Data: patent publication US7235687B2, “Derivatives of 4,4′-dithiobis-(3-aminobutane-1-sulfphonates) and compositions containing same” (Institut National de la Sante et de la Recherche Medicale …, priority 2002, dated 2007)

System: Deoxycorticosterone acetate (DOCA)-salt hypertensive rats
Assay: Effect on blood pressure in DOCA-salt hypertensive rats
Format: in vivo, rat
Conditions: DOCA-salt hypertensive male Wistar Kyoto rats; oral gavage in water at 15 mg/kg; 4.5 hours after administration
Description: Deoxycorticosterone acetate (DOCA)-salt hypertensive rats were obtained according to Pham, I. et al (1993) J. Pharmacol. Exp. Ther. 265, 1339–1347 with the following modifications: under pentobarbital anaesthesia, unilateral nephrectomy was performed in male Wistar Kyoto rats (300 g) and a pellet of 50 mg of DOCA was implanted s.c. After surgery, the rats were fed on standard rat chow and the drinking water was supplemented with 0.9% NaCl and 0.2% KCl. Hypertension developed 3 weeks after surgery.
To record arterial blood pressure, DOCA-salt rats were anaesthetized with pentobarbital sodium (50 mg/kg i.p., Sentravet laboratory, Plancoët, France), a femoral artery catheter (PE50) filled with heparinized saline (250 U/ml) was inserted, then brought under the skin and emerged at the nape of the neck. A flexible metal spring was attached to the skull and neck of the rat and connected to dual channel swivels mounted directly above the cage. This arrangement allowed the rat free movement inside the cage. […] Mean arterial BP was continuously recorded throughout each experiment using a COBE CDX III pressure transducer (Phymep, Paris, France) connected to the MacLab system (Phymep, Paris, France) composed of a MacLab technology unit and Chart software running on a Macintosh computer. […]

Compound: Cl.Cl.NC(CCS(=O)(=O)[O-])CSSCC(N)CCS(=O)(=O)[O-].[Na+].[Na+] (stereo not shown) [Example 1, 4,4′ dithiobis (sodium 3-aminobutane-1-sulfonate) bis chlorohydrate]
- decrease of mean arterial blood pressure: 3680 Pa
